Literature values as cited in patent US7767208B2, “Noninvasive vascular therapy” (Light Sciences Oncology, Inc., priority 1999, dated 2010).

Conditions: systemically administered sensitizer in clinical use; for sensitize the skin for: duration of skin sensitization

Row | Compound | photosensitivity lasting (skin photosensitivity) | sensitize the skin for
1 | sodium porfimer [Photophrin] | up to 6 weeks | –
2 | CCOC(=O)C1=Cc2c3nc(cc4nc(cc5[n-]c(cc6[n-]c2c(C)c6CC)c(C)c5CC)C(C)=C4CC)[C@@H](C)[C@]13CC.[Cl-].[Cl-].[Sn] (racemic) [Purlytin] | – | several weeks
3 | Oc1cccc(-c2c3nc(c(-c4cccc(O)c4)c4ccc([nH]4)c(-c4cccc(O)c4)c4nc(c(-c5cccc(O)c5)c5ccc2[nH]5)CC4)C=C3)c1 [Foscan] | – | several weeks
